In patent US20240425490A1, “SULFAMIDE RIBONUCLEOTIDE REDUCTASE (RNR) INHIBITORS AND USES THEREOF” (Boundless Bio, Inc., priority 2021, published 2024):

Target: T1, RNR (RNR1:RNR2 1:1) (Homo sapiens, UniProt P23921)
T1 sequence (P23921 1-792): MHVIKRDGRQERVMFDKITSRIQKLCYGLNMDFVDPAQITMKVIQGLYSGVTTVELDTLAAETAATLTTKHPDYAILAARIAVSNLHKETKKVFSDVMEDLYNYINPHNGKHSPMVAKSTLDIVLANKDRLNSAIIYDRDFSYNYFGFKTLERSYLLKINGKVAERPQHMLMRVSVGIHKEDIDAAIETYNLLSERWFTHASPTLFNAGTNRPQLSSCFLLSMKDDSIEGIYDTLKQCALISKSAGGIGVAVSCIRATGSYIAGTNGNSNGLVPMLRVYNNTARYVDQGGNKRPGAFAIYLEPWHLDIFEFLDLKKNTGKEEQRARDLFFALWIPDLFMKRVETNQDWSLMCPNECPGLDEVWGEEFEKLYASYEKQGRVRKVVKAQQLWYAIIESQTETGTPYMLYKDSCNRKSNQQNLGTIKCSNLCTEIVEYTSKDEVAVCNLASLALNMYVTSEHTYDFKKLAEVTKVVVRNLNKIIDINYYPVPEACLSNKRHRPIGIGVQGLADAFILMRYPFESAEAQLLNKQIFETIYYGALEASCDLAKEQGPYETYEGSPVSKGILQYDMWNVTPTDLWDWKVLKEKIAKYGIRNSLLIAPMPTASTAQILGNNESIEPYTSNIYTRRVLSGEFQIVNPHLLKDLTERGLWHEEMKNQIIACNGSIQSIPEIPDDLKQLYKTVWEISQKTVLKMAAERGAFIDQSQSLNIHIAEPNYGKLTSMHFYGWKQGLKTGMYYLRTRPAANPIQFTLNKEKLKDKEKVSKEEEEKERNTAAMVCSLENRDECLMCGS
Test: RNR enzyme activity, rapid-fire mass spectrometry (RFMS) assay
Type: biochemical
Details: RNR 50 nM, CDP 5 μM, ATP 1 mM, 37° C., 45 min, compounds screened up to 50 μM, read-out: RF/MS IC50
Procedure, shortened: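 Human RNR1:RNR2 (1:1, 50 nM) pre-incubated 15 min at room temperature with compound, then reacted with 5 μM CDP and 1 mM ATP, no NADPH, for 45 min at 37 °C. Stopped with 6% HCOOH; turnover read by rapid-fire mass spectrometry; Triapine and hydroxyurea as reference compounds.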

| Structure (SMILES) | IC50 [nM] |
| --- | --- |
| COC(=O)C1CC12CCN(S(=O)(=O)N[C@H](c1n[nH]c(=O)o1)C(C)c1c(F)ccc(C)c1C)CC2 (stereo partly drawn) [Example 92, methyl 6-(N-((1S)-2-(6-fluoro-2,3-dimethylphenyl)-1-(5-oxo-4,5-dihydro-1,3,4-oxadiazol-2-yl)propyl)sulfamoyl)-6-azaspiro[2.5]octane-1-carboxylate] | 100 to 1000 |
| Cc1ccc(F)c(C(C)[C@H](NS(=O)(=O)N2CCC3(CCC(=O)N3C)CC2)c2n[nH]c(=O)o2)c1C (stereo partly drawn) [Example 93, N-((1S)-2-(6-fluoro-2,3-dimethylphenyl)-1-(5-oxo-4,5-dihydro-1,3,4-oxadiazol-2-yl)propyl)-1-methyl-2-oxo-1,8-diazaspiro[4.5]decane-8-sulfonamide] | 1000 to 10000 |
| Cc1ccc(F)c([C@@H](C)[C@H](NS(=O)(=O)N2CCC3(CC2)CC(F)(F)C3)c2n[nH]c(=O)o2)c1C [Example 94, 2,2-difluoro-N-((1S,2R)-2-(6-fluoro-2,3-dimethylphenyl)-1-(5-oxo-4,5-dihydro-1,3,4-oxadiazol-2-yl)propyl)-7-azaspiro[3.5]nonane-7-sulfonamide] | 100 to 1000 |
| Cc1ccc(F)c([C@H](C)[C@H](NS(=O)(=O)N2CCC3(CC2)CC(F)(F)C3)c2n[nH]c(=O)o2)c1C [Example 95, 2,2-difluoro-N-((1S,2S)-2-(6-fluoro-2,3-dimethylphenyl)-1-(5-oxo-4,5-dihydro-1,3,4-oxadiazol-2-yl)propyl)-7-azaspiro[3.5]nonane-7-sulfonamide] | 1000 to 10000 |
| Cc1ccc(F)c(C(C)[C@H](NS(=O)(=O)N2CCC(n3cccn3)CC2)c2n[nH]c(=O)o2)c1C (stereo partly drawn) [Example 96, N-((1S)-2-(6-fluoro-2,3-dimethylphenyl)-1-(5-oxo-4,5-dihydro-1,3,4-oxadiazol-2-yl)propyl)-4-(1H-pyrazol-1-yl)piperidine-1-sulfonamide] | 1000 to 10000 |
| Cc1ccc(F)c([C@@H](C)[C@H](NS(=O)(=O)N2CCC(Cl)(Cl)CC2)c2n[nH]c(=O)o2)c1C [Example 97, 4,4-dichloro-N-((1S,2R)-2-(6-fluoro-2,3-dimethylphenyl)-1-(5-oxo-4,5-dihydro-1,3,4-oxadiazol-2-yl)propyl)piperidine-1-sulfonamide] | ≤ 100 |
| Cc1ccc(F)c([C@H](C)[C@H](NS(=O)(=O)N2CCC(Cl)(Cl)CC2)c2n[nH]c(=O)o2)c1C [Example 98, 4,4-dichloro-N-((1S,2S)-2-(6-fluoro-2,3-dimethylphenyl)-1-(5-oxo-4,5-dihydro-1,3,4-oxadiazol-2-yl)propyl)piperidine-1-sulfonamide] | 1000 to 10000 |
| Cc1ccc(F)c(C(C)[C@H](NS(=O)(=O)N2CCC(Cl)(Cl)C(C)C2)c2n[nH]c(=O)o2)c1C (stereo partly drawn) [Example 99, 4,4-dichloro-N-((1S)-2-(6-fluoro-2,3-dimethylphenyl)-1-(5-oxo-4,5-dihydro-1,3,4-oxadiazol-2-yl)propyl)-3-methylpiperidine-1-sulfonamide] | 100 to 1000 |
| Cc1ccc(F)c([C@@H](C)[C@H](NS(=O)(=O)N2CCC(Br)CC2)c2n[nH]c(=O)o2)c1C [Example 100, 4-bromo-N-((1S,2R)-2-(6-fluoro-2,3-dimethylphenyl)-1-(5-oxo-4,5-dihydro-1,3,4-oxadiazol-2-yl)propyl)piperidine-1-sulfonamide] | 100 to 1000 |
| Cc1ccc(F)c(C(C)[C@H](NS(=O)(=O)N2CCC(Cl)(C#N)CC2)c2n[nH]c(=O)o2)c1C (stereo partly drawn) [Example 101, 4-chloro-4-cyano-N-((1S)-2-(6-fluoro-2,3-dimethylphenyl)-1-(5-oxo-4,5-dihydro-1,3,4-oxadiazol-2-yl)propyl)piperidine-1-sulfonamide] | 100 to 1000 |
| Cc1ccc(F)c([C@@H](C)[C@H](NS(=O)(=O)N2CC3C(C2)C3(C)C)c2n[nH]c(=O)o2)c1C (stereo partly drawn) [Example 102, N-((1S,2R)-2-(6-fluoro-2,3-dimethylphenyl)-1-(5-oxo-4,5-dihydro-1,3,4-oxadiazol-2-yl)propyl)-6,6-dimethyl-3-azabicyclo[3.1.0]hexane-3-sulfonamide] | 100 to 1000 |
| Cc1ccc(F)c([C@H](C)[C@H](NS(=O)(=O)N2CC3C(C2)C3(C)C)c2n[nH]c(=O)o2)c1C (stereo partly drawn) [Example 103, N-((1S,2S)-2-(6-fluoro-2,3-dimethylphenyl)-1-(5-oxo-4,5-dihydro-1,3,4-oxadiazol-2-yl)propyl)-6,6-dimethyl-3-azabicyclo[3.1.0]hexane-3-sulfonamide] | 1000 to 10000 |
| Cc1ccc(F)c([C@H](C)[C@H](NS(=O)(=O)N2CC3CC3C2)c2n[nH]c(=O)o2)c1C (stereo partly drawn) [Example 104, N-((1S,2S)-2-(6-fluoro-2,3-dimethylphenyl)-1-(5-oxo-4,5-dihydro-1,3,4-oxadiazol-2-yl)propyl)-3-azabicyclo[3.1.0]hexane-3-sulfonamide] | 10000 to 100000 |
| Cc1ccc(F)c(C(C)[C@H](NS(=O)(=O)N2CC3C(C2)C3(F)F)c2n[nH]c(=O)o2)c1C (stereo partly drawn) [Example 106, 6,6-difluoro-N-((1S)-2-(6-fluoro-2,3-dimethylphenyl)-1-(5-oxo-4,5-dihydro-1,3,4-oxadiazol-2-yl)propyl)-3-azabicyclo[3.1.0]hexane-3-sulfonamide] | 100 to 1000 |
| Cc1ccc(F)c([C@@H](C)[C@H](NS(=O)(=O)N2CCc3cc(Cl)ccc3C2)c2n[nH]c(=O)o2)c1C [Example 107, 6-chloro-N-((1S,2R)-2-(6-fluoro-2,3-dimethylphenyl)-1-(5-oxo-4,5-dihydro-1,3,4-oxadiazol-2-yl)propyl)-3,4-dihydroisoquinoline-2(1H)-sulfonamide] | 100 to 1000 |
| Cc1ccc(F)c([C@@H](C)[C@H](NS(=O)(=O)N2CCc3ccc(Cl)c(Cl)c3C2)c2n[nH]c(=O)o2)c1C [Example 108, 7,8-dichloro-N-((1S,2R)-2-(6-fluoro-2,3-dimethylphenyl)-1-(5-oxo-4,5-dihydro-1,3,4-oxadiazol-2-yl)propyl)-3,4-dihydroisoquinoline-2(1H)-sulfonamide] | 100 to 1000 |
| Cc1ccc(F)c([C@@H](C)[C@H](NS(=O)(=O)N2CCCc3ccccc32)c2n[nH]c(=O)o2)c1C [Example 109, N-((1S,2R)-2-(6-fluoro-2,3-dimethylphenyl)-1-(5-oxo-4,5-dihydro-1,3,4-oxadiazol-2-yl)propyl)-3,4-dihydroquinoline-1(2H)-sulfonamide] | 1000 to 10000 |
| Cc1ccc(F)c([C@@H](C)[C@H](NS(=O)(=O)N2C3CCC2CC(F)(F)C3)c2n[nH]c(=O)o2)c1C [Example 110, 3,3-difluoro-N-((1S,2R)-2-(6-fluoro-2,3-dimethylphenyl)-1-(5-oxo-4,5-dihydro-1,3,4-oxadiazol-2-yl)propyl)-8-azabicyclo[3.2.1]octane-8-sulfonamide] | 100 to 1000 |
| Cc1ccc(F)c(C(C)[C@H](NS(=O)(=O)N2CCC(F)(F)CC2C)c2n[nH]c(=O)o2)c1C (stereo partly drawn) [Example 111, 4,4-difluoro-N-((1S)-2-(6-fluoro-2,3-dimethylphenyl)-1-(5-oxo-4,5-dihydro-1,3,4-oxadiazol-2-yl)propyl)-2-methylpiperidine-1-sulfonamide] | 100 to 1000 |
| Cc1ccc(F)c(C(C)[C@H](NS(=O)(=O)N2CCCC2)c2n[nH]c(=O)o2)c1C (stereo partly drawn) [Example 112, N-((1S)-2-(6-fluoro-2,3-dimethylphenyl)-1-(5-oxo-4,5-dihydro-1,3,4-oxadiazol-2-yl)propyl)pyrrolidine-1-sulfonamide] | 1000 to 10000 |
| Cc1ccc(F)c([C@@H](C)[C@H](NS(=O)(=O)N2CCC(C)(C)CC2)c2n[nH]c(=O)o2)c1C [Example 113, N-((1S,2R)-2-(6-fluoro-2,3-dimethylphenyl)-1-(5-oxo-4,5-dihydro-1,3,4-oxadiazol-2-yl)propyl)-4,4-dimethyl piperidine-1-sulfonamide] | 100 to 1000 |
| Cc1ccc(F)c([C@H](C)[C@H](NS(=O)(=O)N2CCC(C)(C)CC2)c2n[nH]c(=O)o2)c1C [Example 114, N-((1S,2S)-2-(6-fluoro-2,3-dimethylphenyl)-1-(5-oxo-4,5-dihydro-1,3,4-oxadiazol-2-yl)propyl)-4,4-dimethylpiperidine-1-sulfonamide] | 1000 to 10000 |
| Cc1ccc(F)c([C@@H](C)[C@H](NS(=O)(=O)N2CCC(C)CC2)c2n[nH]c(=O)o2)c1C [Example 115, N-((1S,2R)-2-(6-fluoro-2,3-dimethylphenyl)-1-(5-oxo-4,5-dihydro-1,3,4-oxadiazol-2-yl)propyl)-4-methylpiperidine-1-sulfonamide] | 100 to 1000 |
| Cc1ccc(F)c([C@H](C)[C@H](NS(=O)(=O)N2CCC(C)CC2)c2n[nH]c(=O)o2)c1C [Example 116, N-((1S,2S)-2-(6-fluoro-2,3-dimethylphenyl)-1-(5-oxo-4,5-dihydro-1,3,4-oxadiazol-2-yl)propyl)-4-methylpiperidine-1-sulfonamide] | 1000 to 10000 |
